“And” between values parts separate entries of the source, which are not always exact repeats. Identical values can stand only once.
Assays:
human mGluR2 receptor = target: T1, human mGluR2 receptor (Homo sapiens, UniProt Q14416); assay: [35S]GTPγS binding assay (GTPγS-PAM), membranes from CHO cells transfected with human mGluR2; format: biochemical; conditions: positive allosteric modulation in presence of glutamate at predetermined EC25 concentration, averages of duplicate values of 11-concentration response curves, pEC50 = -logEC50, error about 0.3 log-units; for EC50: read-out: GTPgS - hR2 PAM pEC50 (converted)
T1 construct: expressed in transfected cells; host or cells: CHO cells (membrane preparation)
T1 sequence (Q14416 19-872): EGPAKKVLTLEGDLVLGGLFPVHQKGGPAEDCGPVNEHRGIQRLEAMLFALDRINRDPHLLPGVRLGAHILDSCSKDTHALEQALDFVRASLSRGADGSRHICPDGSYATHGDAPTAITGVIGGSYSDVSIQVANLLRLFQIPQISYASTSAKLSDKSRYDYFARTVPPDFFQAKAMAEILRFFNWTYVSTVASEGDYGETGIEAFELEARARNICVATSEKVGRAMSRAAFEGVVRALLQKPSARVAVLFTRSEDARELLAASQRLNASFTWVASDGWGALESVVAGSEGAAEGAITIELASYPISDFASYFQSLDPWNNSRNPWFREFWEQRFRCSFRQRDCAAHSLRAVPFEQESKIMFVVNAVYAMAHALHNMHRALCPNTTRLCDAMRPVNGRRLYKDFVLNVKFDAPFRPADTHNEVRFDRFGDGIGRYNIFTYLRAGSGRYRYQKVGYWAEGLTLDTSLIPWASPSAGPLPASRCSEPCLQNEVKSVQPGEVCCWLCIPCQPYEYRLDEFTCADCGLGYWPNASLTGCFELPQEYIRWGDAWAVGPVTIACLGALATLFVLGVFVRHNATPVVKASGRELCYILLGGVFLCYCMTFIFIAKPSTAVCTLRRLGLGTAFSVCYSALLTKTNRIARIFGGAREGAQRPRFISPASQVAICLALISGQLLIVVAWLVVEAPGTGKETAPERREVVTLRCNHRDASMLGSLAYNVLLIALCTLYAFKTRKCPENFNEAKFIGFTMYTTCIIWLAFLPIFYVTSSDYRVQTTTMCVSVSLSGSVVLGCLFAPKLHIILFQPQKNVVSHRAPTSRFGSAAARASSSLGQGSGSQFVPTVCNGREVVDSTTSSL
Excerpt: The compounds provided in the present invention are positive allosteric modulators of mGluR2. These compounds appear to potentiate glutamate responses by binding to an allosteric site other than the glutamate binding site. The response of mGluR2 to a concentration of glutamate is increased when compounds of formula (I) are present. Compounds of formula (I) are expected to have their effect substantially at mGluR2 by virtue of their ability to enhance the function of the receptor. The behaviour of positive allosteric modulators tested at mGluR2 using the [^35S]GTPγS binding assay method described below and which is suitable for the identification of such compounds, and more particularly the compounds according to formula (I), are shown in Table 3.
[^35S]GTPγS Binding Assay
The [^35S]GTPγS binding assay is a functional membrane-based assay used to study G-protein coupled receptor (GPCR) function whereby incorporation of a non-hydrolysable form of GTP, [^35S]GTPγS (guanosine 5′-triphosphate, labelled with […] ^35S), is measured. The G-protein […] catalyzes the exchange of guanosine 5′-diphosphate (GDP) by guanosine triphosphate (GTP) and on activation of the GPCR by an agonist, [^35S]GTPγS, becomes incorporated and cannot be cleaved to continue the exchange cycle (Harper (1998) Current Protocols in Pharmacology 2.6.1-10, John Wiley & Sons, Inc.). […] Here we describe the use of the [^35S]GTPγS binding assay using membranes from cells transfected with the human mGluR2 receptor and adapted from Sehaffhauser et al ((2003) Molecular Pharmacology 4:798-810) for the detection of the positive allosteric modulation (PAM) properties of the compounds of this invention.
CHO-cells were cultured to pre-confluence and stimulated with 5 mM butyrate for 24 hours, prior to washing in PBS, and then collection by scraping in homogenisation buffer (50 mM Tris-HCl buffer, pH 7.4, 4° C.). Cell lysates were homogenized briefly (15 s) using an ultra-turrax homogenizer. The homogenate was centrifuged at 23 500×g for 10 minutes and the supernatant discarded. The pellet was resuspended in 5 mM Tris-HCl, pH 7.4 and centrifuged again (30 000×g, 20 min, 4° C.). The final pellet was resuspended in 50 mM HEPES, pH 7.4 and stored at −80° C. in appropriate aliquots before use. Protein concentration was determined by the Bradford method (Bio-Rad, USA) with bovine serum albumin as standard.
Measurement of mGluR2 positive allosteric modulatory activity of test compounds in membranes containing human mGluR2 was performed using frozen membranes that were thawed and briefly homogenised prior to pre-incubation in 96-well microplates (15 μg/assay well, 30 minutes, 30° C.) in assay buffer (50 mM HEPES pH 7.4, 100 mM NaCl, 3 mM MgCl2, 50 μM GDP, 10 μg/ml saponin,) with increasing concentrations of positive allosteric modulator (from 0.3 nM to 50 μM) and either a minimal pre-determined concentration of glutamate (PAM assay), or no added glutamate. For the PAM assay, membranes were pre-incubated with glutamate at EC25 concentration, i.e. a concentration that gives 25% of the maximal response glutamate, and is in accordance to published data (Pin et al. (1999) Eur. J. Pharmacol. 375:277-294). After addition of [^35S]GTPγS (0.1 nM, f.c.) to achieve a total reaction volume of 200 μl, microplates were shaken briefly and further incubated to allow [^35S]GTPγS incorporation on activation (30 minutes, 30° C.). The reaction was stopped by rapid vacuum filtration over glass-fibre filter plates (Unifilter 96-well GF/B filter plates, Perkin-Elmer, Downers Grove, USA) microplate using a 96-well plate cell harvester (Filtermate, Perkin-Elmer, USA), and then by washing three times with 300 μl of ice-cold wash buffer (Na2PO4.2H20 10 mM, NaH2PO4.H20 10 mM, pH=7.4). […]

| EC50 (human mGluR2 receptor) [nM] | melting point | GTPgS - hR2 PAM pEC50 (human mGluR2 receptor) | SMILES |
| --- | --- | --- | --- |
| 158 | – | – | N#Cc1c(-c2ccc(Oc3ccnc(Cl)c3)cc2)ccn(CC2CC2)c1=O [Compound 19] |
| 1000 | – | – | CCCCn1ccc(-c2ccc(Oc3cc(C)ccn3)cc2)c(C#N)c1=O [Compound 17] |
| 631 | – | – | CCCCn1ccc(-c2ccc(Oc3ccncc3Cl)cc2)c(C#N)c1=O [Compound 20] |
| – | 121 °C | – | CCCCn1ccc(-c2ccc(Oc3ccnc(C)c3)cc2)c(C#N)c1=O [Compound 18, 3-cyano-1-butyl-4-[4-(2-methyl-pyridin-4-yloxy)-phenyl]-pyridine-2(1H)-one] |
| 138 | 156.4 °C | – | CCCCn1ccc(-c2ccc(Oc3ccc(C)nc3C)c(F)c2)c(C#N)c1=O [Compound 2, 1-Butyl-4-[4-(2,6-dimethyl-pyridin-3-yloxy)-3-fluoro-phenyl]-2-oxo-1,2-dihydro-pyridine-3-carbonitrile] |
| 537 | 104.8 °C | – | CCCCn1ccc(-c2ccc(Oc3cccnc3C)c(F)c2)c(C#N)c1=O [Compound 12] |
| – | 127.1 °C | 6.41 | CCCCn1ccc(-c2ccc(Oc3ccnc(C)c3)cc2F)c(C#N)c1=O [Compound 4, 1-Butyl-4-[2-fluoro-4-(2-methyl-pyridin-4-yloxy)-phenyl]-2-oxo-1,2-dihydro-pyridine-3-carbonitrile] |
| 380 | 145.8 °C | – | Cc1ncccc1Oc1ccc(-c2ccn(CCC3CC3)c(=O)c2C#N)cc1F [Compound 14] |
| 347 | – | – | CCCCn1ccc(-c2ccc(Oc3cc(C)nc(C)c3)c(F)c2)c(C#N)c1=O [Compound 7, 1-Butyl-4-[4-(2,6-dimethyl-pyridin-4-yloxy)-3-fluoro-phenyl]-2-oxo-1,2-dihydro-pyridine-3-carbonitrile] |
| 437 | 136.7 °C | – | CCCCn1ccc(-c2ccc(Oc3cccnc3C)cc2)c(C#N)c1=O [Compound 16] |
| 437 | 125.2 °C and 125.4 °C | – | CCCCn1ccc(-c2ccc(Oc3ccnc(C)c3)c(F)c2)c(C#N)c1=O [Compound 5, 1-Butyl-4-[3-fluoro-4-(2-methyl-pyridin-4-yloxy)-phenyl]-2-oxo-1,2-dihydro-pyridine-3-carbonitrile] |

The next lines start with the compound.

| SMILES | EC50 (human mGluR2 receptor) [nM] | melting point | GTPgS - hR2 PAM pEC50 (human mGluR2 receptor) |
| --- | --- | --- | --- |
| Cc1cc(Oc2ccc(-c3ccn(CC4CC4)c(=O)c3C#N)c(F)c2)cc(C)n1 [Compound 8, 1-Cyclopropylmethyl-4-[4-(2,6-dimethyl-pyridin-4-yloxy)-2-fluoro-phenyl]-2-oxo-1,2-dihydro-pyridine-3-carbonitrile] | 794 | – | – |
| CCCCn1ccc(-c2cc(F)c(Oc3ccnc(C)c3)c(F)c2)c(C#N)c1=O [Compound 15] | 708 | 172.2 °C | – |
| Cc1cc(Oc2ccc(-c3ccn(CCC4CC4)c(=O)c3C#N)c(F)c2)ccn1 [Compound 13] | 417 | 110.7 °C | – |
| Cc1nccc(Oc2ccc(-c3ccn(CC4CC4)c(=O)c3C#N)cc2F)c1C [Compound 11, 1-Cyclopropylmethyl-4-[4-(2,3-dimethyl-pyridin-4-yloxy)-3-fluoro-phenyl]-2-oxo-1,2-dihydro-pyridine-3-carbonitrile] | 676 | – | – |
| Cc1cc(C)nc(Oc2ccc(-c3ccn(CC4CC4)c(=O)c3C#N)c(F)c2)c1 [Compound 1, 1-Cyclopropylmethyl-4-[4-(4,6-dimethyl-pyridin-2-yloxy)-2-fluoro-phenyl]-2-oxo-1,2-dihydro-pyridine-3-carbonitrile] | 813 | 137 °C | – |
| Cc1nccc(Oc2ccc(-c3ccn(CC4CC4)c(=O)c3C#N)c(F)c2)c1C [Compound 10, 1-Cyclopropylmethyl-4-[4-(2,3-dimethyl-pyridin-4-yloxy)-2-fluoro-phenyl]-2-oxo-1,2-dihydro-pyridine-3-carbonitrile] | 372 | – | – |
| Cc1ccc(Oc2ccc(-c3ccn(CC4CC4)c(=O)c3C#N)cc2F)c(C)n1 [Compound 3, 1-Cyclopropylmethyl-4-[4-(2,6-dimethyl-pyridin-3-yloxy)-3-fluoro-phenyl]-2-oxo-1,2-dihydro-pyridine-3-carbonitrile] | 457 | 152.7 °C | – |
| CCCCn1ccc(-c2ccc(Oc3cc(C)nc(C)c3)cc2F)c(C#N)c1=O [Compound 6, 1-Butyl-4-[4-(2,6-dimethyl-pyridin-4-yloxy)-2-fluoro-phenyl]-2-oxo-1,2-dihydro-pyridine-3-carbonitrile] | 437 | 169.9 °C | – |
| Cc1cc(Oc2ccc(-c3ccn(CC4CC4)c(=O)c3C#N)cc2F)cc(C)n1 [Compound 9, 1-Cyclopropylmethyl-4-[4-(2,6-dimethyl-pyridin-4-yloxy)-3-fluoro-phenyl]-2-oxo-1,2-dihydro-pyridine-3-carbonitrile] | 708 | 201.2 °C | – |

Reference: patent US9067891B2, “1,4-disubstituted 3-cyano-pyridone derivatives and their use as positive allosteric modulators of mGluR2-receptors” (JANSSEN PHARMACEUTICALS, INC., priority 2007, dated 2015)
